“And” between values parts separate entries of the source, which are not always exact repeats. Equal entries are not always repeated.
What was measured:
[1] = system: IDH1(R132H) primary human AML cells; assay: AML cell differentiation in blood (flow cytometry, % hCD33+hCD11b+ of hCD45+ cells), human AML PDx models in NSG mice; type: in vivo; details: for AML cell differentiation (% hCD33 + hCD11b+ (of hCD45+ cells)): 1 mg/kg Azacitidine, (QDx5, rest2)X2, 14 days off, each value one animal, 1 mg/kg
Protocol: (§1) Compounds and Formulation. For in vivo studies, each test article is prepared at an appropriate concentration with vehicle. […] Compound A is prepared fresh at the appropriate concentrations with vehicle every 7 days and stored at 4° C. between doses. […] Cytarabine is prepared fresh weekly by dilution with sterile saline from stock solution of Cytarabine (injection 20 mg/mL, (Pfizer injectables')). Azacitidine (Sigma, Lot #MKBR7212) is formulated in sterile water and is prepared fresh daily immediately before dosing. In vivo human AML PDx models. […] Two models are used in the studies: […] As needed, splenocytes from tumor-bearing mice are used to propagate and expand the models, as described. Each test article is prepared as described above at an appropriate concentration with vehicle to give animals the doses tested in this study at a dosing volume of 10 μL/gram body weight. Mice receiving Compound A (PO, QD) are treated at the indicated doses for the duration of the study. The combination agents are dosed as follows: […] Treated mice are assessed in comparison to vehicle treated and naïve (non-tumor bearing) control mice. Body weight is recorded twice per week. […] AML PDx model propagation. […] Spleens are processed and splenocytes isolated as described below. Two hundred μL per subject of the splenocyte prep is injected IV (intravenous, tail vein) into recipient NSG mice. […] Once engraftment is confirmed, the mice are monitored biweekly until ready to be put on study. […] Submandibular blood is collected. Spleen/Splenocyte Processing and Prep. After excision, a spleen is weighed, and […] is placed in a standard sterile 15 mL polypropylene conical tube containing PBS, and placed on ice. […] The spleen is placed in ice cold sterile PBS in a 15 mL collection tube. The spleen is removed from the collection tube and placed in a 100 micron 50 mL conical tube cell strainer (BD Falcon #352360). The spleen is processed by gentle rubbing of the spleen tissue against the surface of the cell strainer with the end of a 5 mL syringe plunger in a circular motion. The surface of the strainer is rinsed with 10 mL room temperature sterile DPBS (HyClone SH30028) 3 times during the process. […] The cell pellet is collected by centrifugation (300×g) and washed three times with 30 mL sterile DPBS. The cells are counted and resuspended in DPBS at the desired implant concentration. Bone Marrow Collection. […] Flow cytometry analysis of human white cells. Submandibular blood samples from in vivo studies are collected. Fluor-conjugated antibody stains are added according to the manufacturer's instructions (anti-human CD33-PE (clone WM53, BD Cat #555450), anti-human CD14-APC (clone MφpP9, BD Cat #340436), anti-human CD15-V450 (clone HI98, BD Cat #561584), anti-human CD117-BV421 (clone YB5.B8, BD Cat #562434), anti-human […]7 (clone ICRF44, BD Cat #557754), anti-human […]7 (clone HI30, BD Cat #557748), and anti-human CD3-FITC (clone SK7, BD Cat #340542)). The samples are incubated for 30 minutes at room temperature, protected from light. After the incubation, 1.5 mL 1×BD Lyse/Fix (37° C., (BD #558049)) is added to each sample and incubated for 12 minutes at room temperature. The tubes are centrifuged at 300×g for 7 minutes. BD Lyse/Fix solution is aspirated and the cell pellet washed with stain/wash buffer 3 times (1 wash step consisted of: pellet resuspended in 3 mL stain/wash buffer, centrifuged at 300×g, aspirated wash). Fixed cells are then resuspended in 300 to 400 μL stain/wash buffer. Samples are analyzed on a Becton Dickinson FACSVerse Flow cytometer (Cat #651155 Serial #Z6511550447) using standard flow cytometry principles and techniques. Samples are analyzed on the same day as they are stained and fixed. Population gating and data analysis of percent population are performed in the FACSuite software on the FACSVerse cytometer. Percent population values from the data analysis are plotted in Graphpad Prism or in JMP13. […]

[2] = system: IDH1(R132H) primary human AML cells; assay: AML clearance in peripheral blood (flow cytometry, % hCD33+hCD45+ of total white cells), human AML PDx models in NSG mice; type: in vivo; details: for AML clearance (% hCD33 + hCD45+ (of total white cells)): 1 mg/kg Azacitidine, (QDx5, rest2)X2, 14 days off, each value one animal, 1 mg/kg
Protocol: as §1

2-HG production = assay: Plasma 2-HG inhibition (LC-MS metabolite analysis in plasma of AML PDx model); type: in vivo, human
[3] = system: IDH1(R132H) primary human AML cells; assay: Bone marrow AML clearance (flow cytometry), human AML PDx models in NSG mice; type: in vivo
Protocol: as §1

[4] = 1 mg/kg Azacitidine, IP, (QDx5, rest 2)x2 14 days off, each line one animal
[5] = 1 mg/kg Azacitidine, (QD × 5, rest 2)x2, 14 days off, each line one animal

## Nc1ncn([C@@H]2O[C@H](CO)[C@@H](O)[C@H]2O)c(=O)n1 [Azacitidine, reference compound]
[1]; Treatment day 2
  AML cell differentiation (% hCD33 + hCD11b+ (of hCD45+ cells)): 10.07% and 14.27% and 13.08% and 12.37% and 5.55% and 9.38% and 9.55%
[1]; Treatment day 15
  AML cell differentiation (% hCD33 + hCD11b+ (of hCD45+ cells)): 12.12% and 16.08% and 11.64% and 18.36% and 13.75% and 11.72% and 18.15%
[1]; Treatment day 28
  AML cell differentiation (% hCD33 + hCD11b+ (of hCD45+ cells)): 21.14% and 21.62% and 19.07% and 20.9% and 16.95% and 20.64% and 21.18%
[1]; Treatment day 43
  AML cell differentiation (% hCD33 + hCD11b+ (of hCD45+ cells)): 10.64% and 9.94% and 11.58% and 6.98% and 6.67% and 12.03% and 10.48%
[1]; Treatment day 58
  AML cell differentiation (% hCD33 + hCD11b+ (of hCD45+ cells)): 14.45% and 9.99% and 10.78% and 11.33% and 11.72% and 13.55%
[1]; Treatment day 77
  AML cell differentiation (% hCD33 + hCD11b+ (of hCD45+ cells)): 10.12% and 10.78% and 8.78% and 6.76% and 10.92% and 11.76%
[1]; Treatment day 98
  AML cell differentiation (% hCD33 + hCD11b+ (of hCD45+ cells)): 10.31% and 14.59% and 17.5% and 8.29% and 16.64%
[1]; Treatment day −19
  AML cell differentiation (% hCD33 + hCD11b+ (of hCD45+ cells)): 1.53% and 0% (2×) and 2.59% and 0.27% and 2.72% and 1.16%
[1]; day 43, group G: azacitidine (1 mg/kg), vehicle 15%
  % AML cell differentiation (treatment group value): 10%
[2]; Treatment day 2
  AML clearance (% hCD33 + hCD45+ (of total white cells)): 23.43% and 20.98% and 19.8% and 15.03% and 22.26% and 10.88% and 16.63%
[2]; Treatment day 15
  AML clearance (% hCD33 + hCD45+ (of total white cells)): 33.19% and 44.55% and 30.95% and 35.67% and 30.39% and 28.23% and 30.75%
[2]; Treatment day 28
  AML clearance (% hCD33 + hCD45+ (of total white cells)): 13.99% and 12.05% and 15.33% and 16.77% and 13.73% and 22.64% and 22.81%
[2]; Treatment day 43
  AML clearance (% hCD33 + hCD45+ (of total white cells)): 32.23% and 23.27% and 18.57% and 27.48% and 11.38% and 25.34% and 20.44%
[2]; Treatment day 58
  AML clearance (% hCD33 + hCD45+ (of total white cells)): 11.92% and 32.12% and 11.16% and 7.63% and 9.47% and 13.4%
[2]; Treatment day 77
  AML clearance (% hCD33 + hCD45+ (of total white cells)): 12.91% and 26.37% and 20.18% and 12.58% and 15.11% and 11.64%
[2]; Treatment day 98
  AML clearance (% hCD33 + hCD45+ (of total white cells)): 62.54% and 70.18% and 65.61% and 37.53% and 38.23%
[2]; Treatment day −19
  AML clearance (% hCD33 + hCD45+ (of total white cells)): 7.65% and 4.33% and 3.14% and 6.28% and 3.24% and 2.46% and 2.87%
[2]; day 43, group G: azacitidine (1 mg/kg), vehicle 71%
  % peripheral blood AML cells (treatment group value): 22%
2-HG production; [4]
  % Inhibition of 2-HG (plasma): 32.923% and 22.691% and 56.872% and 51.81% and 75.405% and 73.207% and 49.201%
  Naive Subtracted 2-HG (plasma): 4.603 µM and 5.305 µM and 2.959 µM and 3.307 µM and 1.688 µM and 1.838 µM and 3.486 µM
  Plasma 2-HG: 7.539 µM and 8.241 µM and 5.896 µM and 6.243 µM and 4.624 µM and 4.775 µM and 6.422 µM
2-HG production; group G: azacitidine (1 mg/kg), vehicle 100%
  % plasma 2-HG (treatment group value): 48%
[3]; [5]
  Bone Marrow AML Clearance: % hCD33 + hCD45+ (% of white cells): 49.81% and 60.61% and 72.4% and 43.12%
  Bone Marrow AML Clearance: % hCD45+ (% of white cells): 49.85% and 61% and 72.52% and 43.15%
[3]; group G: azacitidine (1 mg/kg), vehicle 94%
  % human AML cells in bone marrow (of white cells; lower = more clearance): 55%

— patent US12440493B2, “Combination therapy for treating cancer comprising substituted piperazines” (Eli Lilly and Company, priority 2020, dated 2025)
